The target in the experiment is T1, HiBiT-tagged endogenous SOS1 protein (Homo sapiens, UniProt Q07889).
T1 construct: HEK293 cells were engineered to express a HiBiT-tagged endogenous SOS1 protein; endogenous in cells; host or cells: HEK293 cells, engineered so that endogenous SOS1 carries a HiBiT tag
T1 sequence (Q07889 1-1333): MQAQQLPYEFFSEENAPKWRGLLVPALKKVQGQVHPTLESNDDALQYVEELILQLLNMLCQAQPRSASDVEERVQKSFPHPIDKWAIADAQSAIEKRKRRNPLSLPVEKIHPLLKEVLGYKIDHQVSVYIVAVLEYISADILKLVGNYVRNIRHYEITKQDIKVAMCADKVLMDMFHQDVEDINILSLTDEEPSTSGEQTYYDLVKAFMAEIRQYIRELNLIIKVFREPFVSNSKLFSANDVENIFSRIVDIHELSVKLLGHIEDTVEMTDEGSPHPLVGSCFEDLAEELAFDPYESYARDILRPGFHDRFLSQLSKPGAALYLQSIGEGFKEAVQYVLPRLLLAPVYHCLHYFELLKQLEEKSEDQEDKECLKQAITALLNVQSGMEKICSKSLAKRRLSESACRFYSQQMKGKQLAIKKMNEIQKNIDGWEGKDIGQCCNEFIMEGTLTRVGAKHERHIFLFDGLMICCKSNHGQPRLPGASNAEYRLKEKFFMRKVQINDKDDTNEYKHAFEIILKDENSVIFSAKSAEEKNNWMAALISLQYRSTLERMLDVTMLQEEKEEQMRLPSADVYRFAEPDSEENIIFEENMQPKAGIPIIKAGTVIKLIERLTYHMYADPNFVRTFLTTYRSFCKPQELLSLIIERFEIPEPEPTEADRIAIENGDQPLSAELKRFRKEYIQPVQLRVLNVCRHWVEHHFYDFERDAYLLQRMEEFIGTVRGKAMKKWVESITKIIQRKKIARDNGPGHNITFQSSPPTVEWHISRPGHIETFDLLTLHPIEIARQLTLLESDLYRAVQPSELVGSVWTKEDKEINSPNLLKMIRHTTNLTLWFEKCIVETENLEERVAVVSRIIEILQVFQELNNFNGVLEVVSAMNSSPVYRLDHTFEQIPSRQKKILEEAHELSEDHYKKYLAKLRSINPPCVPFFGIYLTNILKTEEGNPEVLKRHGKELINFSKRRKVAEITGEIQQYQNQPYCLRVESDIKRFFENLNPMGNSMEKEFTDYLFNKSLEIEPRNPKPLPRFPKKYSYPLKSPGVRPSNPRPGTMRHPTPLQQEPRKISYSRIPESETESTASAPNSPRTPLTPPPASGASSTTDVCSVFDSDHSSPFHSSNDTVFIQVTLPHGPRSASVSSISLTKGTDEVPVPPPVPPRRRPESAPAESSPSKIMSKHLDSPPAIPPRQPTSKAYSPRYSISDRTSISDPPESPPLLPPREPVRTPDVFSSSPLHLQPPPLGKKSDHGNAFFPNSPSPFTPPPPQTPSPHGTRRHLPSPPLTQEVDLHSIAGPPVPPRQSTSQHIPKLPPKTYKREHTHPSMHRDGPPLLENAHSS
The experiment is described as follows: SOS1-HiBiT Degradation Assay. Type of experiment: cell-based. To be noted: HEK293 cells expressing HiBiT-tagged endogenous SOS1, 6 h treatment. On the procedure:
HEK293 cells were engineered to express a HiBiT-tagged endogenous SOS1 protein. The cells were cultured in DMEM media supplemented with 10% fetal bovine serum, streptomycin, and penicillin. The cells were seeded in a white walled 384-well plate at 12,500 cells/well in 50 μL culture media. The cells were incubated at 37° C. under 5% CO2 overnight. The cells were then treated with DMSO (control) or a compound for 6 h at 37° C. under 5% CO2. After incubation, 25 μL media was removed from each cell and 25 μL NANO-GLO® lytic detection reagent was added to each well. After a 10 min incubation with shaking, luminescence was measured using a PERKINELMER ENVISION® multimode plate reader.
The results are summarized in Table 1, where “A” represents a DC50 of no greater than 100 nM, “B” represents a DC50 of greater than 100 nM and no greater than 500 nM; “C” represents a DC50 of greater than 500 nM and no greater than 2 μM; and “D” represents a DC50 of greater than 2 μM; and where “A′” represents a Dmax of no less than 70%, “B′” represents a Dmax of less than 70% and no less than 50%; “C′” represents a Dmax of less than 50% and no less than 30%; and “D′” represents a Dmax of less than 30%. Compounds C1 and C2 are (R)-2-(3-(1-((6,7-dimethoxy-2-methylquinazolin-4-yl)amino)ethyl)phenyl)-2,2-difluoroethan-1-ol and (R)—N-(1-(3-amino-5-(trifluoromethyl)phenyl)ethyl)-6,7-dimethoxy-2-methylquinazolin-4-amine, respectively.
(In general: HiBiT is a short tag that completes a luciferase, so light tracks the accessible tagged protein.)

Structures are written as SMILES. A value given as a limit tells only on which side of the number the result lay.

The DC50 is the concentration at which degradation of the target reaches its halfway point. A lower DC50 goes with degradation at low concentration. The Dmax is the greatest extent of degradation seen. With `COc1cc2nc(C)nc(N[C@H](C)c3cccc(C(F)(F)CO)c3)c2cc1OC` [Compound C1, (R)-2-(3-(1-((6,7-dimethoxy-2-methylquinazolin-4-yl)amino)ethyl)phenyl)-2,2-difluoroethan-1-ol], the DC50 is more than 10 µM and the Dmax was determined as 0%.
The matching figures for `COc1cc2nc(C)nc(N[C@H](C)c3cc(N)cc(C(F)(F)F)c3)c2cc1OC` [Compound C2, (R)—N-(1-(3-amino-5-(trifluoromethyl)phenyl)ethyl)-6,7-dimethoxy-2-methylquinazolin-4-amine]: more than 10 µM and 0%.

Values taken from patent publication US12419962B2, “Quinazolines, pharmaceutical compositions, and therapeutic applications” (BioTheryX, Inc., priority 2022, dated 2025).
